From PMC3765824, “Trough colistin plasma level is an independent risk factor for nephrotoxicity: a prospective observational cohort study” (BMC Infectious Diseases, 2013)
Read-outs that look alike come from different tables or passages of the source. Bridge positions count the residues as written; N and C are the ends. Square brackets hold non-standard residues; d marks the D form. Peptide text beside a SMILES is read from it. * marks the point of attachment. X1 = CC[C@H](C)CCCCC(=O)*; Dab = NCC[C@H](N)C(=O)O

Legend:
[1] = Colistin plasma concentrations at steady state (HPLC); format: in vivo, patients; settings: human; for Cmax: intravenous; for level at 72 h: iv
Method: Evaluation of the colistin concentration in plasma was performed after 3 days of treatment, when the colistin concentrations had reached steady state. The samples were immediately centrifuged (3000 g for 10 minutes) and the plasma was stored at −80°C until analysis. Colistin plasma trough concentrations (Cmin) were measured just before the next dose. Maximum plasma concentrations (Cmax) were taken 30 minutes after the end of the CMS infusion (1 h after the start of infusion).
Colistin concentrations in plasma were determined using a validated high-performance liquid chromatography (HPLC) method as described by Li et al., with minor modifications. After protein precipitation, the samples were centrifuged (14000 g, 5 min) and the supernatant transferred to solid phase extraction (SPE) C18 cartridges (Sep-Pak, Waters, Milford, MA, USA), in which derivation with 9-fluorenylmethyl chloroformate (FMOC-Cl) was performed. Elution of the fluorescence derivatives was performed with acetone mixed with acetonitrile and boric acid. Finally, 20 μl of the mixture was injected into the HPLC. The HPLC system was made up of Waters equipment that included a Waters 2475 multi-λ Fluorescence Detector, a Waters 1525 binary pump with column heater, a Waters degasser, and a Waters 717 autoinjector sampler. The stationary phase was a Waters SunFire column C18, 4.6 × […], 5 μm. The mobile phase was a mixture of acetonitrile, tetrahydrofuran and water delivered at an isocratic flux of 1 mL/min. The chromatogram run time was 20 minutes and the detector setting was excitation wavelength 260 nm and emission wavelength 315 nm. The concentrations of colistin were calculated by multiplying the obtained colistin sulfate plasma concentrations by 1163/1403 (1163 being the average molecular weight of colistin A and B, which are the greater part of the products, and 1403 the average molecular weight of colistin sulfate). The colistin plasma concentration in each patient was calculated as the sum of colistin A and B, the two main components. Calibration curves were linear in the range 0.1-8 mcg/ml and the accuracy quality control samples varied from 90–110 % of the nominal concentration for intraday and interday analysis, with a precision (CV%) of 10% or less. The limit of quantification was 0.1 mcg/ml and the limit of detection was 0.05 mcg/mL.

[2] = system: patients receiving intravenous colistin methanesulfonate sodium (CMS); assay: Colistin-associated nephrotoxicity: AKI by RIFLE criteria during CMS treatment; format: in vivo; settings: for N° (%) of patients fulfilling criterion: ESKD (E) / N° (%) of patients fulfilling criterion: Failure (F) / N° (%) of patients fulfilling criterion: Injury (I) / N° (%) of patients fulfilling criterion: Loss (L) / N° (%) of patients fulfilling criterion: No injury / N° (%) of patients fulfilling criterion: Risk (R): RIFLE
Method: (§1) This prospective observational study was performed at a 400-bed acute-care university hospital in Barcelona, Spain. A pharmacy-generated alarm system was used to identify patients on CMS treatment for therapy of infections caused by MDR-GNB. From January 2010 to June 2011, patients (>18 years) were included if they had received colistin methanesulfonate sodium (CMS) for at least 4 days. Patients were excluded if they were receiving renal replacement therapy prior to the initiation of CMS.
CMS for injection was used and dosed in millions of international units (IU) throughout the study. The drug was administered intravenously in 100 mL normal saline over 30 minutes in the commercially available colistimethate formulation for injection (GES Genéricos Españoles ®), with each vial containing 80 mg CMS (equivalent to 1 million international units of CMS). Dose selection was based on the individual criteria of the responsible clinicians, who were not aware that this study was being performed. Although there were some dose adjustments based on baseline renal function, common colistin doses ranged from 1 to 3 million international units (IU) every 8 hours (3–9 million IU daily). Dose adjustments were made according to the package insert’s recommended dosing as follows: GFR ≥ 76 mL/min/1.73 m^2, 4–6 million IU daily in three doses; GFR 40 to 75 mL/min/1.73 m^2, 2–3 million IU daily in 2 doses; GFR 25 to 40 mL/min/1.73 m^2, 1.5-2 million IU daily divided in 1 or 2 doses and; GFR < 25 mL/min/1.73 m^2 , 0.6-1 million of IU daily every 36 hours.
Serum creatinine level and estimated glomerular filtration rate (GFR) were recorded at baseline, on day 7 and at the end of treatment (EOT). We chose these set points because blood tests are done routinely for all inpatients at least once a week and at the end of treatment. The abbreviated Modification of Diet in the Renal Disease Equation (MDRD-4) was used to calculate GFR. Chronic kidney disease (CKD) at baseline was considered if GFR was < 60 mL/min/1.73 m^2 for ≥ 3 months. Patients with increased creatinine (> 1.4 mg/dL) or GFR < 90 mL/min/1.73 m^2 at admission and no prior data regarding chronicity were considered as having acute renal failure due to any cause. The RIFLE criteria (risk, injury, failure, loss, and end-stage kidney disease), estimated with exclusion of the urinary output criterion, were used for detection and stratification of AKI [14] (Table 1). AKI during CMS treatment was defined as a 1.5-fold or more increase in serum creatinine and/or a decrease in the GFR of 25% or more. These criteria needed to be fulfilled for at least 2 consecutive determinations 24 hours apart, after ≥ 4 days of CMS therapy. Patients who developed AKI were followed up for a period of 30 days after the end of CMS treatment to evaluate the reversibility of this toxicity. Patients who died or had no data during this period were excluded from this analysis.
Multivariate analysis of risk factors for colistin nephrotoxicity was constructed by using logistic regression. Univariate analyses were performed separately for each of the risk factor variables to ascertain the odds ratio and 95% confidence interval (CI). All clinically important covariates and those with a P value < 0.2 in the univariate analyses were included in the multivariate analysis. Since Cmax and Cmin values were almost equal, only one of these variables was included in the model.
The ROC curve was used to identify a categorical breakpoint for Cmin that would better identify patients who develop acute kidney injury (AKI) on day 7 and at the end of treatment. For all analyses, a two-sided P value < 0.05 was considered to be statistically significant. The Statistical Package for the Social Sciences (SPSS, version 15.0) was used for statistical analysis.

[3] = system: infections caused by MDR-GNB; assay: Clinical response to CMS treatment; format: in vivo, patients
Method: as §1
Data on demographic characteristics including age, gender, body weight, size, and body mass index were collected. Data on the indication for CMS, the administration schedule, the daily CMS dose recorded as millions of IU, the total cumulative CMS dose (millions of IU), and the duration of treatment were collected. Other data recorded included the presence of CKD at baseline, the Charlson score, the severity of disease at the time of the first CMS dose stratified according to the Acute Physiology and the Chronic Health Evaluation (APACHE) II [16]. The concomitant use of aminoglycosides, vancomycin, angiotensin II receptor blockers, angiotensin-converting enzyme inhibitors, loop diuretics, intravenous dye, amphotericin B, non-steroidal anti-inflammatory drugs (NSAIDs), the need for vasopressor drugs, and discontinuation of CMS treatment because of AKI were also recorded. The patient’s clinical status at the beginning of CMS treatment was defined as infection, severe sepsis and shock, according to the standard definition. Clinical response was defined as the resolution of signs, symptoms, and laboratory parameters that defined infection for each patient. The 30-day all-cause mortality was also recorded.

[4] = system: patients receiving intravenous colistin methanesulfonate sodium (CMS); assay: 30-day all-cause mortality; format: in vivo; settings: 102 patients on iv CMS
Description: Data on demographic characteristics including age, gender, body weight, size, and body mass index were collected. Data on the indication for CMS, the administration schedule, the daily CMS dose recorded as millions of IU, the total cumulative CMS dose (millions of IU), and the duration of treatment were collected. Other data recorded included the presence of CKD at baseline, the Charlson score, the severity of disease at the time of the first CMS dose stratified according to the Acute Physiology and the Chronic Health Evaluation (APACHE) II [16]. The concomitant use of aminoglycosides, vancomycin, angiotensin II receptor blockers, angiotensin-converting enzyme inhibitors, loop diuretics, intravenous dye, amphotericin B, non-steroidal anti-inflammatory drugs (NSAIDs), the need for vasopressor drugs, and discontinuation of CMS treatment because of AKI were also recorded. The patient’s clinical status at the beginning of CMS treatment was defined as infection, severe sepsis and shock, according to the standard definition. Clinical response was defined as the resolution of signs, symptoms, and laboratory parameters that defined infection for each patient. The 30-day all-cause mortality was also recorded. […]

[5] = % of the 26 patients with nephrotoxicity at day 7
[6] = End of treatment, multivariate logistic regression

CC[C@H](C)CCCCC(=O)N[C@@H](CCN)C(=O)N[C@H](C(=O)N[C@@H](CCN)C(=O)N[C@H]1CCNC(=O)[C@H]([C@@H](C)O)NC(=O)[C@H](CCN)NC(=O)[C@H](CCN)NC(=O)[C@H](CC(C)C)NC(=O)[C@@H](CC(C)C)NC(=O)[C@H](CCN)NC1=O)[C@@H](C)O [colistin] (X1-[Dab]T[Dab][Dab][Dab][dL]L[Dab][Dab]T; lactam 4-C)
Cmax ([1]; 1 million IU/8 h, CMS 1 million IU/8 h (n = 28), steady state, 30 min after infusion, median (interquartile range), read-out: Cmax): 650 ng/mL
Cmax ([1]; 2 million IU/8 h, CMS 2 million IU/8 h (n = 42), steady state, 30 min after infusion, median (interquartile range), read-out: Cmax): 1130 ng/mL
Cmax ([1]; 3 million IU/8 h, CMS 3 million IU/8 h (n = 16), steady state, 30 min after infusion, median (interquartile range), read-out: Cmax): 1840 ng/mL
Cmax ([1]; CMS other doses (n = 16), steady state, 30 min after infusion, median (interquartile range), read-out: Cmax): 1500 ng/mL
Cmax ([1]; first value of pair, taken as patients without acute renal failure at baseline, read-out: Peak colistin plasma level): 1000 ng/mL
Cmax ([1]; second value of pair, taken as patients with acute renal failure at baseline, read-out: Peak colistin plasma level): 1820 ng/mL
level at 72 h ([1]; 1 million IU/8 h, CMS 1 million IU/8 h (n = 28), steady state trough, median (interquartile range), read-out: Cmin): 710 ng/mL
level at 72 h ([1]; 2 million IU/8 h, CMS 2 million IU/8 h (n = 42), steady state trough, median (interquartile range), read-out: Cmin): 1140 ng/mL
level at 72 h ([1]; 3 million IU/8 h, CMS 3 million IU/8 h (n = 16), steady state trough, median (interquartile range), read-out: Cmin): 1840 ng/mL
level at 72 h ([1]; CMS other doses (n = 16), steady state trough, median (interquartile range), read-out: Cmin): 1500 ng/mL
level at 72 h ([1]; first value of pair, taken as patients without acute renal failure at baseline, read-out: Trough colistin plasma level): 860 ng/mL
level at 72 h ([1]; second value of pair, taken as patients with acute renal failure at baseline, read-out: Trough colistin plasma level): 1790 ng/mL

colistin methanesulfonate sodium [CMS]
Patients who developed AKI needing renal replacement therapy ([2]; 53 patients with AKI): None
Nephrotoxicity at day 7: F (Failure) [2, 5]: 2 (7.6) n (%)
Nephrotoxicity at day 7: I (Injury) [2, 5]: 8 (30.7) n (%)
Nephrotoxicity at day 7: R (Risk) [2, 5]: 16 (61.5) n (%)
Nephrotoxicity at the end of treatment: I (Injury) ([2]; % of the 50 patients with nephrotoxicity at EOT): 23(46) n (%)
AKI at EOT ([2]; CMS 1 million IU/8 h (n = 28)): 14 (50) n (%)
AKI at day 7 ([2]; CMS 1 million IU/8 h (n = 28)): 5 (17.9) n (%)
AKI at EOT ([2]; CMS 2 million IU/8 h (n = 42)): 21 (50) n (%)
AKI at day 7 ([2]; CMS 2 million IU/8 h (n = 42)): 11 (26.2) n (%)
AKI at EOT ([2]; CMS 3 million IU/8 h (n = 16)): 9 (56.3) n (%)
AKI at day 7 ([2]; CMS 3 million IU/8 h (n = 16)): 7 (43.8) n (%)
AKI at EOT ([2]; CMS other doses (n = 16)): 6 (37.5) n (%)
AKI at day 7 ([2]; CMS other doses (n = 16)): 3 (18.8) n (%)
N° (%) of patients fulfilling criterion: ESKD (E) ([2]; Day 7 (n = 102)): 0 (0) N° (%)
N° (%) of patients fulfilling criterion: Failure (F) ([2]; Day 7 (n = 102)): 2 (2) N° (%)
N° (%) of patients fulfilling criterion: Injury (I) ([2]; Day 7 (n = 102)): 8 (7.8) N° (%)
N° (%) of patients fulfilling criterion: Loss (L) ([2]; Day 7 (n = 102)): 0 (0) N° (%)
N° (%) of patients fulfilling criterion: No injury ([2]; Day 7 (n = 102)): 76 (74.5) N° (%)
N° (%) of patients fulfilling criterion: Risk (R) ([2]; Day 7 (n = 102)): 16 (15.7) N° (%)
Odds ratio (95% CI) of CMS cumulative dose at day 7 for nephrotoxicity ([2]; Day 7, multivariate logistic regression): 0.99 (0.94-1.04)
N° (%) of patients fulfilling criterion: ESKD (E) ([2]; EOT (n = 102)): 0 (0) N° (%)
N° (%) of patients fulfilling criterion: Failure (F) ([2]; EOT (n = 102)): 13 (12.7) N° (%)
N° (%) of patients fulfilling criterion: Injury (I) ([2]; EOT (n = 102)): 23 (22.5) N° (%)
N° (%) of patients fulfilling criterion: Loss (L) ([2]; EOT (n = 102)): 0 (0) N° (%)
N° (%) of patients fulfilling criterion: No injury ([2]; EOT (n = 102)): 52 (51) N° (%)
N° (%) of patients fulfilling criterion: Risk (R) ([2]; EOT (n = 102)): 14 (13.7) N° (%)
Odds ratio (95% CI) of CMS cumulative dose for nephrotoxicity [2, 6]: 0.99 (0.98-1)
Odds ratio (95% CI) of CMS duration treatment for nephrotoxicity [2, 6]: 1.03 (0.98-1.08)
Patients with nephrotoxicity at day 7 ([2]; n=102, RIFLE criteria): 26 (25.5) n (%)
Patients with nephrotoxicity at the end of treatment ([2]; n=102, RIFLE criteria): 50 (49) n (%)
Clinical response ([3]; CMS 1 million IU/8 h (n = 28)): 25 (89.3) n (%)
Clinical response ([3]; CMS 2 million IU/8 h (n = 42)): 32 (76.2) n (%)
Clinical response ([3]; CMS 3 million IU/8 h (n = 16)): 11 (68.8) n (%)
Clinical response ([3]; CMS other doses (n = 16)): 11 (68.8) n (%)
Clinical response ([3]; all included patients n=102): 79 (77.5) n (%)
30-day all-cause mortality rate [4]: 32.4%
